Data on two compounds can be found in ChEMBL document CHEMBL1123128, “(+/-)-2-Amino-3,4-dihydro-7-[2,3-dihydroxy-4-(hydroxymethyl)-1- cyclopentyl]-7H-pyrrolo[2,3-d]pyrimidin-4-ones: new carbocyclic analogues of 7-deazaguanosine with antiviral activity” (1985).

≈ marks a conversion by molar mass, not a printed value.

The experiment relates to Human alphaherpesvirus 1. The experiment in a line: The minimal inhibitory concentration required to inhibit HSV-1 virus in MRC5 cells. Type of experiment: functional.

Turning to `Nc1nc(O)c2ccn([C@@H]3C[C@H](CO)[C@H](O)[C@@H]3O)c2n1`, the MIC worked out at 100 µg/mL (≈ 357 µM).
With `Nc1nc(O)c2ccn([C@@H]3C[C@H](CO)[C@@H](O)[C@@H]3O)c2n1` the figure was 25 µg/mL (≈ 89.2 µM).
